What was measured:
[1] = test system: Caspase-3 and PARP in osteosarcoma cell line (U2OS); assay: Western Blotting Test, osteosarcoma cell line (U2OS); type: cell-based; conditions: U2OS cells, 10 μM, FIG. 14
Experimental: (§1) After a certain period of time, the degree of cell extinction is evaluated by examining the degree of expression of extinction and damage of a specific factor by using Western Blotting Test and the result is shown in FIG. 14.

[2] = test system: breast epithelial cell; assay: Trypan Blue Exclusion Test; type: cell-based; conditions: both test concentrations 1 μM and 10 μM, FIG. 13
Experimental: (§2) In the presence of a test compound or a comparative compound, a cell line is cultured for a certain period of time (about 72 hours) and then a cytotoxicity test is conducted. As a control group, a blank test is conducted in the same manner as above without adding any compound including the test compound and the comparative compound.

[3] = test system: Caspase-3 and PARP in breast epithelial cell line; assay: Western Blotting Test, breast epithelial cell line; type: cell-based; conditions: breast epithelial cell line, 1, 10 and 100 μM, FIG. 14
Experimental: as §1

[4] = test system: breast epithelial cell line; assay: Cytomorphology Test (microscopic examination of cultured cells); type: cell-based; conditions: cultured about 72 hours, FIG. 12
Experimental: as §2

[5] = in ethanol; cited from earlier work

With `COc1cc([C@@H]2c3cc4c(cc3[C@@H](O[C@@H]3O[C@@H]5CO[C@@H](C)O[C@H]5[C@H](O)[C@H]3O)[C@H]3COC(=O)[C@H]23)OCO4)cc(OC)c1O` [Etoposide] as the compound, how does the “Western blot peaks from cell extinction and damage (Caspase-3, PARP)” value [1] read?
Its value is “significantly remarkable peak at 17 kDa, 19 kDa and 89 kDa positions”.

What does the source list for `CC(=O)/C=C/c1ccc2cc(O)cc(O)c2c1` [Example 1, (E)-4-(6,8-dihydroxynaphthalen-2-yl)but-3-en-2-one]?
number of cells alive (trypan blue) vs control group [2]: number of cells similar to that of the control group; Western blot peaks from cell extinction and damage (Caspase-3, PARP) [3]: no peak at 17 kDa, 19 kDa and 89 kDa positions; cytomorphology and number change of the cultured cell vs control group [4]: no significant difference from the control group

For `CCN=c1cc2oc3cc(NCC)c(C)cc3c(-c3ccccc3C(=O)OCC)c-2cc1C.Cl` [rhodamin 6G], which “quantum yield of reference standard” value [5] is on record?
Its value is 0.95.

Source: patent US10787607B2, “High efficiency fluorescent compound and method for preparing the same” (SNU R&DB FOUNDATION, priority 2011, dated 2020)
